Experimental data taken from the supplement of paper PMC12076712.

Assays:
Assay in all cases: pIC50, competition of probe 3 labelling in live cells
Settings in all cases: cell material: Jurkat cells
CDK2 = CDK2 (UniProt P24941)
CDK5 = CDK5 (UniProt Q00535)
MAP4K2 = target: T1, MAP4K2 (UniProt Q12851)
T1 sequence (whole entry): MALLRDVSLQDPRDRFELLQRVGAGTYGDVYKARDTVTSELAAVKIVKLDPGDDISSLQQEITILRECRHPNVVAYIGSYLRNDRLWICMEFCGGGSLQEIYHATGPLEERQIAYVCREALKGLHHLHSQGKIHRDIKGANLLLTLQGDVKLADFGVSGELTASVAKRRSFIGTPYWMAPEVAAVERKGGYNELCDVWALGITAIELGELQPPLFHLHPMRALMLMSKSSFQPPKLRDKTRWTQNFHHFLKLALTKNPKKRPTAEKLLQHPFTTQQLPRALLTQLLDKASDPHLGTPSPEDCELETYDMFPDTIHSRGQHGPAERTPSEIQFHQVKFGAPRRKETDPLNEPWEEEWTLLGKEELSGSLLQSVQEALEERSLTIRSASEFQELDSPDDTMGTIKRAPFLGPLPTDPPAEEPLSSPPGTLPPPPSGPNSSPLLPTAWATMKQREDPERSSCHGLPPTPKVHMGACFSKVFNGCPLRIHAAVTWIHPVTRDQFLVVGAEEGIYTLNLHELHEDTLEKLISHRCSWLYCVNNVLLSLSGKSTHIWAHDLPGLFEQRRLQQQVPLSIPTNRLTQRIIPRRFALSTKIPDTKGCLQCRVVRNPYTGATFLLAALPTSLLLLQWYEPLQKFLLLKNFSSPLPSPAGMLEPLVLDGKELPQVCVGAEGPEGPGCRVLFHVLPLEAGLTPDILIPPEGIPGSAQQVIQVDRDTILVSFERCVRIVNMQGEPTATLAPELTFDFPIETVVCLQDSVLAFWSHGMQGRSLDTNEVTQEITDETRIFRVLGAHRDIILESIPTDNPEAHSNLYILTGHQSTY

LIMK1 = LIMK1 (UniProt P53667)
MASTL = target: T2, MASTL (UniProt Q96GX5)
T2 sequence (whole entry): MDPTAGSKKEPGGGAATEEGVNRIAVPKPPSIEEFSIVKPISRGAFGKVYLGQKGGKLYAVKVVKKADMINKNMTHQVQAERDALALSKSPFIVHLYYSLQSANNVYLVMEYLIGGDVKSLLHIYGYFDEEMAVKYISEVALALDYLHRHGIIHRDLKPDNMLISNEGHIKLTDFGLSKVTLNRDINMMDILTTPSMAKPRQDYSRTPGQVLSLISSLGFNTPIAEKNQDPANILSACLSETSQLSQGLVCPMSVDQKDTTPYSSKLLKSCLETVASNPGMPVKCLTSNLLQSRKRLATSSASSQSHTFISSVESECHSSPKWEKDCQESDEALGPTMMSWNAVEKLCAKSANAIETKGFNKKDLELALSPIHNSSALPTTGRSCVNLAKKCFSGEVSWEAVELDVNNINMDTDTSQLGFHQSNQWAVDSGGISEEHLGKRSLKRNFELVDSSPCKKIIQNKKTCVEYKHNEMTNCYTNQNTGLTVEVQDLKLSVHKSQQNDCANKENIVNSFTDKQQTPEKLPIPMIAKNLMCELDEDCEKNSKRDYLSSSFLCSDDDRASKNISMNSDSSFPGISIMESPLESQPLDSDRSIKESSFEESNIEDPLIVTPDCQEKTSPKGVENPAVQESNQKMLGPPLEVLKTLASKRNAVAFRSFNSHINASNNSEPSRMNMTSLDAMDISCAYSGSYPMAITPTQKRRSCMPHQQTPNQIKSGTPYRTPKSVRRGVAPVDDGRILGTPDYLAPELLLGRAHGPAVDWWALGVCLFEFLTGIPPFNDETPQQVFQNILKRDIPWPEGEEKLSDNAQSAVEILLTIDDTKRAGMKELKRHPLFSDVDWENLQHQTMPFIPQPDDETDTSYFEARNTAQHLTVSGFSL

UniProt Q13188 = target: T3, UniProt Q13188
T3 sequence (whole entry): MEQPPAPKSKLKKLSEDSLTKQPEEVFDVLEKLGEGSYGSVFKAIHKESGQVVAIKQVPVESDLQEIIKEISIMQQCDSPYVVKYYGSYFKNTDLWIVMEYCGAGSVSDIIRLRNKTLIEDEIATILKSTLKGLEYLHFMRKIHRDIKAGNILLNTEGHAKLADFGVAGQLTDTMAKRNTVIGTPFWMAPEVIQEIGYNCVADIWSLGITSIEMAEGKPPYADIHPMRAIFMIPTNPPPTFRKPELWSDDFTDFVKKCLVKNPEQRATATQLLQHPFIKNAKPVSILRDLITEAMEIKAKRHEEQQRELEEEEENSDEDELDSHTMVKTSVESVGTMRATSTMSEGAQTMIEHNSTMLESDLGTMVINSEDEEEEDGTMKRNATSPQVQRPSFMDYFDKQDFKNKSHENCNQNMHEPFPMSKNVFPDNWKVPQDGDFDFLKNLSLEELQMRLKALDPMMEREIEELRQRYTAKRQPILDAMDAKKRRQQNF

PXMP2 = PXMP2 (UniProt Q9NR77)
ABHD6 = ABHD6 (UniProt Q9BV23)
BLK = BLK (UniProt P51451)
UniProt P19525 = target: UniProt P19525
CASP6 = CASP6 (UniProt P55212)

Measured: pIC50

Chain of CDK5 (Q00535 whole entry, looked up): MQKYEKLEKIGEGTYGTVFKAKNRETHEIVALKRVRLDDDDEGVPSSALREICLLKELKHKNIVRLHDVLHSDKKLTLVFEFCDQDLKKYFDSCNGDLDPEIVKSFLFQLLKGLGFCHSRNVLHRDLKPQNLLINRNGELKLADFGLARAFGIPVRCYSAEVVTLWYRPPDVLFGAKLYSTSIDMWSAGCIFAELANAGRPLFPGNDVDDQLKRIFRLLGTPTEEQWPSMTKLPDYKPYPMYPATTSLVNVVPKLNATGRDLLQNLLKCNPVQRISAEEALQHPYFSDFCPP
Chain of UniProt P19525 (P19525 whole entry): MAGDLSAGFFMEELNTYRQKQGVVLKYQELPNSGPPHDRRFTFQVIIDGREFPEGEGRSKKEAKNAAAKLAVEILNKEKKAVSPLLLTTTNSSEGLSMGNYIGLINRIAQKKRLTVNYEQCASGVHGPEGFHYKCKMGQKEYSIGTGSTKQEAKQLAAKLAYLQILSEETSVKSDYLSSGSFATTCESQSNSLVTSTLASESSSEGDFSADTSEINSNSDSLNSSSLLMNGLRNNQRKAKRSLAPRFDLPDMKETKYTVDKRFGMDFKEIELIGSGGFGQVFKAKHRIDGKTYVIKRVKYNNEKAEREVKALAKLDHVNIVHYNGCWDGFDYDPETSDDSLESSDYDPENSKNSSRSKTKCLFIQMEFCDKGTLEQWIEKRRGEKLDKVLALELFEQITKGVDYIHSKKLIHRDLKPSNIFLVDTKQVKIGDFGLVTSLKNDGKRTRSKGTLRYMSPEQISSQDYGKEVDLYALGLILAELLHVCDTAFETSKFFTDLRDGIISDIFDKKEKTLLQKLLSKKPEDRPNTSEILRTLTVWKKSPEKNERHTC
Chain of LIMK1 (P53667 whole entry, looked up): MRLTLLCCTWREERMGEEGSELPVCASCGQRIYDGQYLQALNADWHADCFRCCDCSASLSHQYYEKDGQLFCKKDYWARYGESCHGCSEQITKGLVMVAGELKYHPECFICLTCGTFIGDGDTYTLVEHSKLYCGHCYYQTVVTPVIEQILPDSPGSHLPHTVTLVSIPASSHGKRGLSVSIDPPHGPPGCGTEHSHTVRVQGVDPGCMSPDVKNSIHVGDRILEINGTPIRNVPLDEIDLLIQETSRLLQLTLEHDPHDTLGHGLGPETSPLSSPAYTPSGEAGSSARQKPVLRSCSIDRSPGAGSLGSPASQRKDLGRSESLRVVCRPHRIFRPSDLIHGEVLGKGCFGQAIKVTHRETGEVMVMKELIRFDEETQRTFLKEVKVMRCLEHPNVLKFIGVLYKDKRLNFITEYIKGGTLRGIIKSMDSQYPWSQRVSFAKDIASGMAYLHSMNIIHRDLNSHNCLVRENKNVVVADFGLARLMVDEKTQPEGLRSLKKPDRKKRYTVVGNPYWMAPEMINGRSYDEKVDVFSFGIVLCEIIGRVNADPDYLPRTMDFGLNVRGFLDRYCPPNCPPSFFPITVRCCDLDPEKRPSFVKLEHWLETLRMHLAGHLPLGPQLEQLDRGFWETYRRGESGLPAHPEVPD
Chain of ABHD6 (Q9BV23 whole entry): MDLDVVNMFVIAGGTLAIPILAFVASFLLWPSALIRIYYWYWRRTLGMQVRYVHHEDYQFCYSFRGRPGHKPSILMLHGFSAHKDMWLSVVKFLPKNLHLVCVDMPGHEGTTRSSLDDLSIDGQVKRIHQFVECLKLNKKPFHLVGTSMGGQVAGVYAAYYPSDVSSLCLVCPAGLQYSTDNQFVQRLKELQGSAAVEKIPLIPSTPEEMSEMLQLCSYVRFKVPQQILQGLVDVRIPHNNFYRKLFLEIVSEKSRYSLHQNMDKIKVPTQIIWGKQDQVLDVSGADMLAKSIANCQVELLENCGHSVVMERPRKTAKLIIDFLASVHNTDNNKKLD
Chain of PXMP2 (Q9NR77 whole entry): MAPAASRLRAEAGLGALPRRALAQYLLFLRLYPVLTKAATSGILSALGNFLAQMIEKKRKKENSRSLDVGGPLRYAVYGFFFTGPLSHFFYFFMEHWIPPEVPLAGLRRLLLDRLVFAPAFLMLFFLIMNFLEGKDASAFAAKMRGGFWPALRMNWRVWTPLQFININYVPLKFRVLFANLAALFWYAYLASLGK
Chain of CASP6 (P55212 whole entry): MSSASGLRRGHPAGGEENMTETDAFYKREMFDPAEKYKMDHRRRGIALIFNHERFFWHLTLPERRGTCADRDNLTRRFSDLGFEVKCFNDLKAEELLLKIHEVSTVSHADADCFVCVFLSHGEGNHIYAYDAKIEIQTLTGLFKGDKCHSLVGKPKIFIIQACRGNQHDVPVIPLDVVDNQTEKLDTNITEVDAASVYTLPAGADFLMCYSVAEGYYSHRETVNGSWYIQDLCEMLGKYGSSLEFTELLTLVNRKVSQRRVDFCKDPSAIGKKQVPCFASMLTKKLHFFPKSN
Chain of BLK (P51451 whole entry, looked up): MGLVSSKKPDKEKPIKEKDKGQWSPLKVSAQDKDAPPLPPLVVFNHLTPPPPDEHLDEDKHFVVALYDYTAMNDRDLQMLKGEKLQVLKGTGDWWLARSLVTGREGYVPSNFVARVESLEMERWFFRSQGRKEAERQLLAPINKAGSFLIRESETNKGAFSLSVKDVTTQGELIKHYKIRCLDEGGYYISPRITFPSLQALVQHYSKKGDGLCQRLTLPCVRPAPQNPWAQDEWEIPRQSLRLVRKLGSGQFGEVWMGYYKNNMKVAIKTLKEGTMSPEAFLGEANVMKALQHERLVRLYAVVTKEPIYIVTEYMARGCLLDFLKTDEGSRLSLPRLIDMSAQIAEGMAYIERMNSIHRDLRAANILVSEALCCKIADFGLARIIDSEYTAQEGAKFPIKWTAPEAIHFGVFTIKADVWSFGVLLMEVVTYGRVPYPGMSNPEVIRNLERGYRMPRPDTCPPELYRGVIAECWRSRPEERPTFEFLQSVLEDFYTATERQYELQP

CC#CC(=O)Nc1ccc2ncnc(Nc3cccc(Br)c3)c2c1 [EKI-785]
< 4.52: CDK2 | CDK5 | MAP4K2 | LIMK1 | MASTL

CCc1cnn2c(NCc3ccc[n+]([O-])c3)cc(N3CCCC[C@H]3CCO)nc12 [dinaciclib]
< 4.52: UniProt Q13188 | PXMP2 | ABHD6 | BLK | UniProt P19525 | CASP6
